Assay results as given in patent US20240092936A1, “METHODS OF TREATING HER2 POSITIVE BREAST CANCER WITH TUCATINIB IN COMBINATION WITH CAPECITABINE AND TRASTUZUMAB” (Seagen Inc., priority 2019, published 2024).
Entries after “also recorded” stand apart in the source; their conditions may differ. Read-outs that look alike come from different tables or passages of the source.

Legend:
[1] = cited from earlier work
[2] = test system: patients on tucatinib studies; test: Safety observations in earlier tucatinib studies (e.g. ONT-380-005); type: in vivo, human; conditions: patients taking tucatinib alone or in combination
From the text: Trastuzumab and other HER2-targeted therapies were known to increase the risk of the development of asymptomatic and symptomatic declines in LVEF. […] Cardiac function was therefore monitored closely.
Monitoring of liver function tests was required for any patient taking tucatinib.
Patients with brain metastases were at risk for occurrence of AEs due to the presence of CNS lesions, progression of disease and toxicities potentially related to study treatment. On occasion, treatment of brain metastases with systemic or radiation therapy had been associated with localized edema thought to be due to treatment effect and not tumor progression. […] The patient's symptoms responded rapidly and completely to systemic corticosteroids. It was not known if this patient's symptoms were due to local progression or treatment-related toxicity. […] The patient was taken for surgical resection, and found to have no viable tumor. The resected lesion was thought to represent treatment-related necrosis.

[3] = Table 11, strong inhibitors or inducers of CYP3A4
[4] = Table 10, strong inhibitors and inducer of CYP2C8

NC(=O)N1c2ccccc2C=Cc2ccccc21 [Carbamazepine]
Elimination Half-life ([1]; Table 11, repeat dose): 12 to 17 h (repeat dose)
Elimination Half-life (hours) ([1]; Table 11, single dose): 25-65 hours (single does),

CC[C@H]1OC(=O)[C@H](C)[C@@H](O[C@H]2C[C@@](C)(OC)[C@@H](O)[C@H](C)O2)[C@H](C)[C@@H](O[C@@H]2O[C@H](C)C[C@H](N(C)C)[C@H]2O)[C@](C)(OC)C[C@@H](C)C(=O)[C@H](C)[C@@H](O)[C@]1(C)O [Clarithromycin]
Elimination Half-life [1, 3]: 3 to 7 h

COC(=O)[C@H](c1ccccc1Cl)N1CCc2sccc2C1 [Clopidogrel]
Elimination Half-life [1, 4]: 6 h

COc1ccc([C@@H]2Sc3ccccc3N(CCN(C)C)C(=O)[C@@H]2OC(C)=O)cc1 [Diltiazem]
Elimination Half-life [1, 3]: 3 to 4 h

Cc1ccc(C)c(OCCCC(C)(C)C(=O)O)c1 [Gemfibrozil]
Elimination Half-life [1, 4]: 1 to 2 h

CCC(C)n1ncn(-c2ccc(N3CCN(c4ccc(OCC5COC(Cn6cncn6)(c6ccc(Cl)cc6Cl)O5)cc4)CC3)cc2)c1=O (centres unmarked) [Itraconazole]
Elimination Half-life ([1]; Table 11, repeat dose): 34 to 42 h (repeat dose)
Elimination Half-life (hours) ([1]; Table 11, single dose): 16-28 hours (single dose),

CC(=O)N1CCN(c2ccc(OCC3COC(Cn4ccnc4)(c4ccc(Cl)cc4Cl)O3)cc2)CC1 (centres unmarked) [Ketoconazole (systemic), Ketoconazole]
Elimination Half-life [1, 3]: 2 to 8 h

CC(C)(O)c1ccccc1CC[C@@H](SCC1(CC(=O)O)CC1)c1cccc(/C=C/c2ccc3ccc(Cl)cc3n2)c1 [Montelukast]
Elimination Half-life [1, 4]: 3 to 6 h

CCc1nn(CCCN2CCN(c3cccc(Cl)c3)CC2)c(=O)n1CCOc1ccccc1 [Nefazodone]
Elimination Half-life [1, 3]: 2 to 4 h

O=C1NC(=O)C(c2ccccc2)(c2ccccc2)N1 [Phenytoin]
Elimination Half-life [1, 3]: 7 to 42 h

CC[C@@H]([C@H](C)O)n1ncn(-c2ccc(N3CCN(c4ccc(OC[C@@H]5CO[C@@](Cn6cncn6)(c6ccc(F)cc6F)C5)cc4)CC3)cc2)c1=O [Posoconazole]
Elimination Half-life [1, 3]: 27 to 35 h

COc1cc(Cc2cnc(N)nc2N)cc(OC)c1OC [Trimethoprim]
Elimination Half-life [1, 4]: 8 to 12 h

C[C@@H](c1ncncc1F)[C@](O)(Cn1cncn1)c1ccc(F)cc1F [Voriconazole]
Elimination Half-life (hours) [1, 3]: Dose dependent

Cc1cc(Nc2ncnc3ccc(NC4=NC(C)(C)CO4)cc23)ccc1Oc1ccn2ncnc2c1 [tucatinib]
Adverse findings reported in earlier tucatinib studies [2]: rare reports of asymptomatic cardiac failure; also recorded: Grade 3 and 4 elevation of LFTs had been seen in some patients

Troleanomycin
Elimination Half-life [1, 3]: 2 h
